Residues, ends and D or L forms follow the SMILES beside them. *: point of attachment. FITC = O=C1OC2(c3ccc(O)cc3Oc3cc(O)ccc32)c2ccc(NC(=S)*)cc21
Assays:
[1] = target: T1, AP2 μ2 (Homo sapiens, UniProt Q96CW1); test: Phosphomimetic ProP-PD selection, AP2 μ2; settings: phosphomimetic enrichment score of the wild-type/phosphomimetic (E) pair at the phosphosite, PM_HD2 phage selection, all overlapping peptides and replicates; positive = phosphomimetic enhances binding; P-value in brackets not taken
T1 construct: AP2_Mu__Q96CW1_160_435; GST (cleaved yes); made in house; host or cells: Escherichia coli BL21-Gold(DE3)
T1 sequence (Q96CW1 160-435): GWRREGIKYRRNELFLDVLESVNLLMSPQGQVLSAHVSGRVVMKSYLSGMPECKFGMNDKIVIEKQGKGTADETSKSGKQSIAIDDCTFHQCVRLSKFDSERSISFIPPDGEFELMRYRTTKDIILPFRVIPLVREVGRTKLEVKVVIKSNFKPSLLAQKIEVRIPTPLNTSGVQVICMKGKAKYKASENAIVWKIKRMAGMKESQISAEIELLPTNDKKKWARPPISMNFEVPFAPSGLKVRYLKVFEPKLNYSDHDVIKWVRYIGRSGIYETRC
Experimental: Selections using the PM_HD2 phage library were performed as described previously with minor modification to the original protocol. The corresponding tag protein (either GST or MBP) was first used during negative selections. Selections were run for 4 days. • Bait and tag proteins (10–15 μg in 100 μl PBS) were immobilised in 96‐well MaxiSorb plate (NUNC) o.n. at 4°C. • Escherichia coli OmniMax bacteria were grown in 2YT medium supplemented with tetracycline (100 μg/ml) at 37°C and 200 rpm. • Plates with immobilised bait/tag proteins were blocked with 0.5% BSA in PBS for 1 h at 4°C. • Phage library (10 μl/well) was prepared by diluting 10× with PBS and adding one‐fourth of the volume of PEG/NaCl. For phage precipitation, prepared library was incubated for 10 min on ice followed by centrifugation for 10 min at 10,000 × g at 4°C. […]
Based on the results from phage pool ELISAs, samples from selection Day 3 and 4 were selected for NGS, as described previously (Benz et al, [2022]). • Peptide coding regions were amplified and dual‐barcoded by PCR. […] From the columns, samples were eluted with 30 μl TE (10 mM Tris–HCl, 1 mM EDTA. pH 7.5) buffer and quantified with Quant‐iT PicoGreen dsDNA Assay Kit. • Samples were sequenced on MiSeq (MSC 2.5.0.5/RTA 1.18.54) with a 151 nt (Read1) setup using “Version3” chemistry. […]

[2] = target: T1, AP2 μ2; test: FP displacement assay, AP2 μ2; format: binding; settings: probe FITC-ATG9A 5 nM, 50 mM sodium phosphate pH 7.4, room temperature, at least three technical replicates, read-out: KD values ± SEM
Experimental: (§1) FP experiments were performed as described previously (Kliche et al, [2021]). Shortly, in order to monitor the binding event, FITC‐labelled peptides were used (excitation 495 nm, emission: 535 nm) and the FP signal was recorded in mP on a SpectraMax iD5 Multi‐Mode Microplate Reader (Molecular Devices) by measuring the emitted light in two angels. The measurements were performed at room temperature and prepared in nonbinding black half area 96‐well microplates (Corning®; 50 μl/well). For measuring direct binding, that is saturation curves, a 1:1 dilution series of protein domain (25 μl/well) was generated in 50 mM sodium phosphate buffer pH 7.4 and the measurement performed with 5 nM FITC‐labelled peptide (25 μl/well). The buffer‐corrected values were subsequently plotted with PRISM and fitted to the quadratic equation (Gianni et al, [2005]).
The 1:1 dilution series in this experiment was performed with the unlabelled peptide in 50 mM sodium phosphate buffer pH 7.4, so that each well‐contained unlabelled peptide (25 μl) at a certain concentration and pre‐formed complex (25 μl). The KD values of this indirectly monitored binding event were calculated as described previously (Nikolovska‐Coleska et al, [2004]). All measurements were at least in technical triplicates as well as biological duplicates when indicated. An amplitude shift between repeat measurements in the displacement experiments was occasionally observed due to variations in the protein preparations. If that was the case, the “active” protein concentration was back‐calculated according to the quadratic equation from the saturation curves performed in parallel. By comparing the active protein concentrations in the complex between different protein preparations, the amplitude was normalised.

[3] = target: T2, GGA1 VHS (Homo sapiens, UniProt Q9UJY5); test: FP saturation experiment, GGA1 VHS; settings: FP saturation (direct binding), 5 nM FITC-labelled peptide, 50 mM sodium phosphate pH 7.4, room temperature; at least technical triplicates; reference for probe peptide RiboVD, Mihalič et al, to be published; read-out: KD [µM] + SE
T2 construct: GGA1_VHS__Q9UJY5_1_157; GST (cleaved yes); made in house; host or cells: Escherichia coli BL21-Gold(DE3)
T2 sequence (Q9UJY5 1-157): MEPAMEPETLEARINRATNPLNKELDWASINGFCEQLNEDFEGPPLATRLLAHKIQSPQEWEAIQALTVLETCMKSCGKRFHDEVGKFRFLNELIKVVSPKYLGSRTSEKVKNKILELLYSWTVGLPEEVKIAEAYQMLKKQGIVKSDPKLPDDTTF
Experimental: as §1

[4] = target: T3, KPNA4 ARM minor (Homo sapiens, UniProt O00629); test: FP saturation experiment, KPNA4 ARM (minor); settings: FP saturation (direct binding), 5 nM FITC-labelled peptide, 50 mM sodium phosphate pH 7.4, room temperature; at least technical triplicates; reference for probe peptide PMID: 35044719; read-out: KD [µM] + SE
T3 construct: 60-487; GST (cleaved yes); made in house; host or cells: Escherichia coli BL21-Gold(DE3)
T3 sequence (O00629 60-487): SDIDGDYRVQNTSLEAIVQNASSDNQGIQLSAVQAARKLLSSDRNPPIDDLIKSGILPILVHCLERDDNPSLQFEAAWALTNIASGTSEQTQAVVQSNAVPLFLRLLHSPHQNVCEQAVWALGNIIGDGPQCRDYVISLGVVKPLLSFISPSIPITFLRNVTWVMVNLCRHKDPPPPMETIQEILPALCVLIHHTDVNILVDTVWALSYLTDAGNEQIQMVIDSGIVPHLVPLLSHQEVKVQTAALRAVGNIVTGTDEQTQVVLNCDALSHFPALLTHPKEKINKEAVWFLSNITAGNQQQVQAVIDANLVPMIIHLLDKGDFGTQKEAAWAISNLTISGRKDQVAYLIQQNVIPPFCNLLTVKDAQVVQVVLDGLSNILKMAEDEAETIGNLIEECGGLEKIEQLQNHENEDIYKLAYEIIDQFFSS
Experimental: as §1

[5] = target: T4, GABARAPL2 ATG8 (Homo sapiens, UniProt P60520); test: FP saturation experiment, GABARAPL2 ATG8; settings: FP saturation (direct binding), 5 nM FITC-labelled peptide, 50 mM sodium phosphate pH 7.4, room temperature; at least technical triplicates; reference for probe peptide PMID: 33436498; read-out: KD [µM] + SE
T4 construct: GABARAPL2_ATG8__P60520_2_115; GST (cleaved yes); made in house; host or cells: Escherichia coli BL21-Gold(DE3)
T4 sequence (P60520 2-115): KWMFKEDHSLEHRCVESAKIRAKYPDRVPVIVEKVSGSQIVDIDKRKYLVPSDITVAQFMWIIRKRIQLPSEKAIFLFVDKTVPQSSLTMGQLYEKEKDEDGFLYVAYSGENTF
Experimental: as §1

[6] = target: T5, MAP1LC3B ATG8 (Homo sapiens, UniProt Q9GZQ8); test: FP saturation experiment, MAP1LC3B ATG8; settings: FP saturation (direct binding), 5 nM FITC-labelled peptide, 50 mM sodium phosphate pH 7.4, room temperature; at least technical triplicates; reference for probe peptide PMID: 33436498; read-out: KD [µM] + SE
T5 construct: MAP1LC3B ATG8; made in house; host or cells: Escherichia coli BL21-Gold(DE3)
Experimental: as §1

[7] = tested on: PIN1 WW domain; test: FP displacement assay, PIN1 WW domain (GST-tagged); format: binding, human; settings: probe FITC-SMAD3, technical triplicates
Experimental: For FP, ITC and crystallisation, the tag was removed with the appropriate protease either on beads (0.1 mg/ml thrombin (Cytiva) in PBS, 1 mM dithiothreitol (DTT)) or by dialysis in cleavage buffer (Human Rhinovirus (HRV) 3C protease: 50 mM Tris–HCl pH 7.4, 150 mM NaCl, 1 mM β‐mercaptoethanol), both procedures were overnight. In case of HRV protease cleavage, the tag was separated from the target protein domain by reverse ion metal affinity chromatography using Ni^2+ beads for purification, whereas thrombin was removed using a benzamidine column (Cytiva). Affinity measurements for SNX27 PDZ were performed on the MBP‐tagged construct, as well as PIN1 WW domain on the GST‐tagged construct. For FP and ITC, proteins were dialysed in 50 mM sodium phosphate buffer pH 7.4, 1 mM DTT. For crystallisation of the NTD of clathrin, the protein was further purified by a S200 Sepharose column (Cytiva) using 20 mM Tris–HCl pH 7.4, 150 mM NaCl and 1 mM DTT.
FP experiments were performed as described previously (Kliche et al, [2021]). Shortly, in order to monitor the binding event, FITC‐labelled peptides were used (excitation 495 nm, emission: 535 nm) and the FP signal was recorded in mP on a SpectraMax iD5 Multi‐Mode Microplate Reader (Molecular Devices) by measuring the emitted light in two angels. […]

For `CC(=O)N[C@@H](Cc1ccccc1)C(=O)N1CCC[C@H]1C(=O)N[C@@H](CO)C(=O)N[C@@H](CCC(=O)O)C(=O)N[C@@H](Cc1ccc(O)cc1)C(=O)N[C@H](C(=O)N[C@@H](CCCCN)C(=O)N[C@@H](CC(C)C)C(=O)N[C@@H](CC(C)C)C(=O)N[C@@H](CCC(=O)O)C(=O)N[C@@H](CCC(=O)O)C(=O)N[C@@H](CC(N)=O)C(=O)N[C@@H](CCC(=O)O)C(=O)N[C@H](C(=O)N[C@@H](CCC(=O)O)C(=O)N[C@@H](C)C(N)=O)[C@@H](C)O)[C@@H](C)O` [BAIAPL1_392–407 E] (Ac-FPSEYTKLLEENETEA-NH2), which PES [1] is on record?
Its PES is 1.2 (0.095).

What about the Kd [2] of the same compound?
Its Kd is 0.49 ± 0.08 µM.

How did the Kd [3] turn out when `CC[C@H](C)[C@H](NC(=O)[C@H](Cc1c[nH]cn1)NC(=O)[C@H](CC(C)C)NC(=O)[C@H](CC(C)C)NC(=O)[C@H](CC(=O)O)NC(=O)[C@H](CCC(=O)O)NC(=O)[C@H](CC(=O)O)NC(=O)[C@H](CO)NC(=O)[C@H](CC(=O)O)NC(=O)[C@H](CC(=O)O)NC(=S)Nc1ccc2c(c1)C(=O)OC21c2ccc(O)cc2Oc2cc(O)ccc21)C(=O)O` [FITC-IGF2R] ({FITC}-DDSDEDLLHI-OH) was run?
Its Kd is 31 ± 4 µM.

Which Kd [4] does the source give for `CC[C@H](C)[C@H](NC(=O)[C@H](C)NC(=O)[C@H](CCCNC(=N)N)NC(=O)CNC(=O)[C@@H](NC(=O)[C@H](CCCNC(=N)N)NC(=O)CNC(=O)[C@H](CCC(=O)O)NC(=O)[C@H](CCSC)NC(=O)[C@H](CCSC)NC(=O)[C@H](CC(=O)O)NC(=O)[C@H](Cc1ccc(O)cc1)NC(=O)[C@@H](NC(=O)[C@H](CCCNC(=N)N)NC(=O)[C@H](CCCCN)NC(=O)[C@@H]1CCCN1C(=S)Nc1ccc2c(c1)C(=O)OC21c2ccc(O)cc2Oc2cc(O)ccc21)[C@@H](C)O)C(C)C)C(N)=O` [FITC-NCOR2] ({FITC}-PKRTYDMMEGRVGRAI-NH2) here?
Its Kd is 0.013 ± 0.0008 µM.

Which results are given for `CC(C)C[C@H](NC(=O)[C@H](Cc1c[nH]cn1)NC(=O)[C@@H](NC(=O)[C@H](Cc1c[nH]c2ccccc12)NC(=O)[C@H](CC(=O)O)NC(=O)[C@H](CC(=O)O)NC(=O)[C@H](CC(=O)O)NC(=S)Nc1ccc2c(c1)C(=O)OC21c2ccc(O)cc2Oc2cc(O)ccc21)[C@@H](C)O)C(=O)N[C@@H](CO)C(=O)N[C@@H](CO)C(=O)N[C@@H](CCCCN)C(N)=O` [FITC-SQSTM1]?
Kd [5]: 11 ± 1 µM; Kd [6]: 2.5 ± 0.2 µM

How did the PES [1] turn out when `CC[C@H](C)[C@H](NC(=O)[C@@H](NC(=O)[C@@H]1CCCN1C(=O)[C@H](CCC(=O)O)NC(=O)[C@H](CO)NC(=O)[C@H](C)NC(=O)[C@@H]1CCCN1C(=O)[C@H](CCSC)NC(=O)[C@@H]1CCCN1C(=O)[C@H](CCC(N)=O)NC(=O)[C@H](Cc1ccc(O)cc1)NC(=O)[C@@H]1CCCN1C(=O)[C@@H](NC(=O)[C@@H](NC(=O)[C@H](CCSC)NC(C)=O)[C@@H](C)O)[C@@H](C)CC)C(C)C)C(=O)N[C@@H](CS)C(N)=O` [PCBP1_179–194 E] (Ac-MTIPYQPMPASEPVIC-NH2) was run?
Its PES is 1 (0.15).

And the Kd [2]?
The Kd was 2.05 ± 0.09 µM.

How did the “binding in FP displacement experiment” value [7] turn out when “H3COC-MSETQSS(pS/E)PTKGVLMY-NH2 [PIAS2_493–507 wt, wild-type PIAS2 493-507 peptide]” was run?
The value was “none of the peptides tested”.
